From PubChem BioAssay (NCI)
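Test compounds were applied to cells in 96-well plates for 48 hours at 5 doses. The concentration for full growth arrest is given as TGI.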

Legend:
Experiment in all cases: NCI tumour cell line growth inhibition, 48 h
[1] = test system: HCC-2998 colon
[2] = test system: RXF 393 renal
[3] = test system: SF-295 CNS
[4] = test system: HT29 colon
[5] = test system: HL-60(TB) leukemia
[6] = test system: SK-OV-3 ovarian
[7] = test system: SK-MEL-5 melanoma
[8] = test system: MALME-3M melanoma
[9] = test system: SN12C renal
[10] = test system: KM20L2 colon
[11] = test system: DLD-1 colon
[12] = test system: SW-620 colon
[13] = test system: SK-MEL-28 melanoma
[14] = test system: HOP-62 NSCLC
[15] = test system: CCRF-CEM leukemia
[16] = test system: UACC-257 melanoma
[17] = test system: NCI-H522 lung
[18] = test system: UO-31 renal
[19] = test system: IGROV1 ovarian
[20] = test system: OVCAR-3 ovarian
[21] = test system: OVCAR-8 ovarian
[22] = test system: TK-10 renal
[23] = test system: RPMI-8226 leukemia
[24] = test system: A498 renal
[25] = test system: COLO 205 colon
[26] = test system: SF-539 CNS
[27] = test system: KM12 colon
[28] = test system: ACHN renal
[29] = test system: A549 NSCLC
[30] = test system: NCI-H23 lung
[31] = test system: MOLT-4 leukemia
[32] = test system: HCT-116 colon
[33] = test system: OVCAR-5 ovarian
[34] = test system: SR leukemia
[35] = test system: NCI-H460 lung
[36] = test system: M19-MEL melanoma
[37] = test system: SNB-19 CNS
[38] = test system: OVCAR-4 ovarian
[39] = test system: 786-0 renal
[40] = test system: DMS 114 small cell lung
[41] = test system: UACC-62 melanoma
[42] = test system: SF-268 CNS
[43] = test system: K-562 leukemia
[44] = test system: SK-MEL-2 melanoma
[45] = test system: EKVX NSCLC
[46] = test system: HOP-92 NSCLC
[47] = test system: SNB-78 CNS
[48] = test system: U251 CNS
[49] = test system: NCI-H226 lung
[50] = test system: DMS 273 small cell lung
[51] = test system: LOX IMVI melanoma
[52] = test system: HCT-15 colon
[53] = test system: SNB-75 CNS
[54] = test system: CAKI-1 renal
[55] = test system: M14 melanoma

Measured: TGI

C[N+](C)(C)CC(=O)N/N=C(/Cc1nc2ccc(Cl)cc2[nH]c1=O)C1=NS(=O)(=O)c2cc(S(N)(=O)=O)c(Cl)cc2N1
not listed: [46] | [47] | [48] | [49] | [50] | [51] | [52] | [53] | [54] | [55]
> 100 µM: all other assays above

C=CCCCC(C#N)(c1ccccc1)N1CCCC1 (centres undefined)
not listed: [11]
> 100 µM: all other assays above
